Measurements taken from US8378117B2 (priority 2005, dated 2013).
Like-named read-outs stand apart in the source and are kept apart here.

Columns and labels:
CB2 receptor [1] = target: T1, CB2 receptor (Homo sapiens, UniProt P34972); assay: Binding assay for CB2 agonists or inverse agonists (SK-N-MC membranes, [3H]-CP-55,940); settings: for IC50: Cannabinoid CB2 Receptor Binding IC50, calculated by linear regression from percent inhibition at various test concentrations
T1 construct: expressed in transfected cells
Method in brief: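 IC50 came from percent-inhibition data over several compound concentrations, fitted by linear regression. Binding used semi-purified membranes of human CB2-transfected SK-N-MC cells, 90 min at 30 °C, pH 7.5 Tris-HCl with MgCl2, EDTA and BSA, then filtration and scintillation counting.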

CB1 receptor [2] = target: T2, CB1 receptor (Homo sapiens, UniProt P21554); assay: Modified binding assay, CB1 receptor in CHO cells, [3H]CP 55940; settings: [3H]CP 55940 0.5 nM, 120 minutes at 37° C.
T2 construct: expressed in transfected cells
Description: Additional receptor binding studies were performed with minor modifications as detailed below.
The human CB1 and CB2 receptors were stably expressed in CHO cells as described in Rinaldi-Carmona, M., Calandra, B., Shire, D., Bouaboula, M., Oustric, D., Barth, F., Casellas, P., Ferrara, P. and Le Fur, G. (1996) J. PharmacoL Exp. Ther., 278: 871-878 and Munro, S., Thomas, K. L. and Abu-Shaar, M. (1993) Nature, 365: 61-65, respectively. [^3H]CP 55940 (0.5 nM) was used as the radioligand for the CB1 receptor binding assay. [^3H]WIN 55212 (0.8 nM) was used as the radioligand for the CB2 receptor binding assay. Incubation was carried out for 120 minutes at 37° C.
The specific ligand binding to the receptors is defined as the difference between the total binding and the nonspecific binding determined in the presence of an excess of unlabelled ligand. The results are expressed as a percent of control specific binding ((measured specific binding/control specific binding)×100) obtained in the presence of the test compounds.
The IC50 values (concentration causing a half-maximal inhibition of control specific binding) were determined by non-linear regression analysis of the competition curves generated with mean replicate values using Hill equation curve fitting (where Y=specific binding, D=minimum specific binding, A=maximum specific binding, C=compound concentration, C50=IC50 and nH=slope factor): (Y=D+[(A−D)/(1+(C/C50)^nH)] CB1 and CB2 Receptor Binding Results
For compounds tested, an IC50 binding value was obtained from percent inhibition studies in which various test concentrations were used.

CB2 receptor [3] = target: T1, CB2 receptor; assay: Functional cell-based assay, CB2 receptor mediated change in CRE β-gal expression (SK-N-MC cells); settings: CB2 Receptor Functional Agonist EC50, forskolin induced β-galactosidase activity, SK-N-MC cells
From the text: The CB1 and CB2 receptors are G-protein coupled receptors (GPCR), which influence cell function via the Gi-protein. These receptors modulate the activity of intracellular adenylate cyclase, which in turn produces the intracellular signal messenger cyclic-AMP (cAMP).
At baseline, or during non-ligand bound conditions, these receptors are constitutively active and tonically suppress adenylate cyclase activity. The binding of an agonist causes further receptor activation and produces additional suppression of adenylate cyclase activity. The binding of an inverse agonist inhibits the constitutive activity of the receptors and results in an increase in adenylate cyclase activity.
By monitoring intracellular adenylate cyclase activity, the ability of compounds to act as agonists or inverse agonists can be determined.
Test compounds were evaluated in SK-N-MC cells which, using standard transfection procedures, were stably transfected with human cDNA for pcDNA3-CRE β-gal and pcDNA3 CB1 receptor (human) or pcDNA3 CB2 receptor (human). By expressing CRE β-gal, the cells produced β-galactosidase in response to CRE promoter activation by cAMP. Cells expressing CRE β-gal and either the human CB1 or CB2 receptor will produce less β-galactosidase when treated with a CB1/CB2 agonist and will produce more β-galactosidase when treated with a CB1/CB2 inverse agonist.
The cells were grown in 96-well plates under standard cell culture conditions at 37° C. in a 5% CO2 atmosphere and culture media (wherein the media was supplemented with 2 mM L-glutamine, […] sodium pyruvate, 10% FBS (fetal bovine serum) and antibiotics).
For cells expressing CRE β-gal and the CB2 receptor, CB2 agonists reduced β-galactosidase activity in a dose-dependent manner and CB2 inverse agonists increase β-galactosidase activity in a dose-dependent manner.
The change in forskolin induced β-galactosidase activity was determined by setting a vehicle treated cell's activity value at 100% and expressing the β-galactosidase activity measured in a corresponding compound treated cell as a percent of the vehicle treated cell activity.
The EC50 value for functional activity for compounds tested was calculated by linear regression and was obtained from studies in which varying compound concentrations were used.

CB1 receptor [4] = target: T2, CB1 receptor; assay: Modified functional cell-based assay (Beta-Glo luminescence), CB1 receptor
Description: (§1) Additional functional activity studies were performed with minor modifications. Beta galactosidase activity was quantified using the luminescent Beta-Glo Assay System (Promega Corp. Madison, Wis.) and an Orion Microplate Luminometer (Berthold Detection Systems, Oak Ridge, Tenn.). The EC50 values were calculated using GraphPad Prism and a four parameter logistic equation.
(§2) The functional activity EC50 value for compounds tested (shown in Table 8) were obtained from studies in which varying compound concentrations were used. With the exception of Cpd 237 (n=3), one sample for each compound was tested.

CB2 receptor [5] = target: T1, CB2 receptor; assay: Modified functional cell-based assay (Beta-Glo luminescence), CB2 receptor; settings: CB2 EC50 (Receptor Functional Activity), one sample per compound, Cpd 237 n=3
Description: as §1, §2

[6] = CB1 EC50 (Receptor Functional Activity), one sample per compound, Cpd 237 n=3

T2 sequence (P21554 whole entry): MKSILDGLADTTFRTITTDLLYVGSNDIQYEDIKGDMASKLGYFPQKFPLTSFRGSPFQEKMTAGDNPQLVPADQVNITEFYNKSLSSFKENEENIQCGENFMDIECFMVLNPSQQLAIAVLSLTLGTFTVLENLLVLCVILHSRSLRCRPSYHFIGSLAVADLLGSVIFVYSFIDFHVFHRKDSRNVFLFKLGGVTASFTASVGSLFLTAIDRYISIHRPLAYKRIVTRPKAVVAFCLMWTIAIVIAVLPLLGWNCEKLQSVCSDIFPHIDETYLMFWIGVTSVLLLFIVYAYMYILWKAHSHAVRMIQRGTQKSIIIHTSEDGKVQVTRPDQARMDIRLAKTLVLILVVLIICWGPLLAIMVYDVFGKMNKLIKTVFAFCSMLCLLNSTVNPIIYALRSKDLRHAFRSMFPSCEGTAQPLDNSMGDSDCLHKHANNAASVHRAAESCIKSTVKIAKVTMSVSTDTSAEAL
T1 sequence (P34972 whole entry): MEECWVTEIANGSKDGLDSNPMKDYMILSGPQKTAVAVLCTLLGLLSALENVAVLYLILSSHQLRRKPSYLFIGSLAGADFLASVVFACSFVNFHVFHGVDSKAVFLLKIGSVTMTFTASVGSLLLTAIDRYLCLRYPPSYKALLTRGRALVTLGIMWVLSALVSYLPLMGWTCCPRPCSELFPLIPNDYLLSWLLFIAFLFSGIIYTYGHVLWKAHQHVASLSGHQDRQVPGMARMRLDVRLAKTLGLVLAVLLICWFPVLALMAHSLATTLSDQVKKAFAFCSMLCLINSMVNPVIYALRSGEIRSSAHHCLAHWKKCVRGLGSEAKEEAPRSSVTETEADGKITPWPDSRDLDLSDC

| Compound | IC50 (CB2 receptor [1]) [nM] | inhibition at 0.2 µM (CB2 receptor [1]; test concentration 0.2 μM (footnote 2), read-out: CB2 receptor binding percent inhibition) [%] | IC50 (CB1 receptor [2]) [nM] | EC50 (CB2 receptor [3]) [nM] | EC50 (CB1 receptor [4]; [6]) [nM] | EC50 (CB2 receptor [5]) [nM] | CB2 receptor binding percent inhibition (CB2 receptor [1]; test concentration 0.2 μM (footnote 2), 0.2 µM) [%] | EC50 (CB1 receptor [4]; read-out: CB1 EC50 (Receptor Functional Activity), one sample per compound, Cpd 237 n=3) [nM] |
| --- | --- | --- | --- | --- | --- | --- | --- | --- |
| C[C@H](NS(=O)(=O)/C=C/c1n[nH]c2c1CCCC/C2=C\c1ccc(Cl)cc1)c1ccccc1 [Cpd 237, (2E,8E)-2-[8-(4-chloro-benzylidene)-1,4,5,6,7,8-hexahydro-cycloheptapyrazol-3-yl]-ethenesulfonic acid [(1S)-1-phenyl-ethyl]-amide] | 100 | 64 | > 3000 | 9 | 3600 | 3200 | – | – |
| O=C(N[C@H](CO)c1ccccc1)c1n[nH]c2c1CCCCC2Cc1cccc(Cl)c1 (single isomer, unassigned) [Cpd 230, (8R*)-8-(3-chloro-benzyl)-1,4,5,6,7,8-hexahydro-cycloheptapyrazole-3-carboxylic acid [(1S)-2-hydroxy-1-phenyl-ethyl]-amide] | 40 | – | 370 | 2 | > 1000 | 11 | – | – |
| C[C@H](NS(=O)(=O)/C=C/c1n[nH]c2c1CCCCC2Cc1cccc(F)c1)c1ccccc1 (single isomer, unassigned) [Cpd 232, (2E)-2-[(8R*)-8-(3-fluoro-benzyl)-1,4,5,6,7,8-hexahydro-cycloheptapyrazol-3-yl]-ethenesulfonic acid [(1S)-1-phenyl-ethyl]-amide] | 60 | – | – | 9 | ~3200 | 150 | 81 | – |
| O=C(N[C@H](CO)c1ccccc1)c1n[nH]c2c1CCCCC2Cc1cccc(Cl)c1 (single isomer, unassigned) [Cpd 231, (8S*)-8-(3-chloro-benzyl)-1,4,5,6,7,8-hexahydro-cycloheptapyrazole-3-carboxylic acid [(1S)-2-hydroxy-1-phenyl-ethyl]-amide] | 200 | – | > 3000 | 12 | – | 82 | – | > 1000 |
